How the values were obtained:
[1] = Liquid; for mass density: 101 kPa, Vibrating tube method; for vapor or sublimation pressure: Ebulliometric method (Recirculating still)
[2] = refractive index (Na D-line) (dimensionless); conditions: 293.15 K; 101.33 kPa; Liquid; Standard Abbe refractometry
[3] = xn = mol fraction of the nth substance listed; conditions: 101 kPa, Liquid, Vibrating tube method

CC(C)CO [2-methyl-1-propanol]
[1]
Conditions | mass density [kg/m3] | vapor or sublimation pressure [kPa]
333.15 K | 769.49 | 12.3
343.15 K | 760.79 | 21
353.15 K | 751.86 | 32.7

Conditions | refractive index
[2] | 1.3962

CC(C)O [propan-2-ol] + CC(C)CO
[3], x1 = 1
Conditions | mass density [kg/m3]
333.15 K | 749.23
343.15 K | 739.46
353.15 K | 729.1

CC(C)CO [2-methyl-1-propanol] + CC(C)O
mass density [kg/m3], [3]
Conditions | 333.15 K | 343.15 K | 353.15 K
x2 = 0 | 769.49 | 760.79 | 751.86
x2 = 0.042 | 768.8 | 760.07 | 751.1
x2 = 0.1428 | 767.1 | 758.28 | 749.19
x2 = 0.1913 | 766.26 | 757.39 | 748.25
x2 = 0.2906 | 764.49 | 755.53 | 746.26
x2 = 0.3911 | 762.62 | 753.57 | 744.18
x2 = 0.4444 | 761.6 | 752.49 | 743.03
x2 = 0.4993 | 760.52 | 751.36 | 741.83
x2 = 0.5485 | 759.52 | 750.32 | 740.72
x2 = 0.594 | 758.58 | 749.33 | 739.66
x2 = 0.6911 | 756.5 | 747.14 | 737.33
x2 = 0.7445 | 755.31 | 745.88 | 735.99
x2 = 0.8481 | 752.91 | 743.36 | 733.3
x2 = 0.8925 | 751.85 | 742.24 | 732.1
x2 = 0.9491 | 750.48 | 740.78 | 730.53

CC(C)O [propan-2-ol]
[1]
Conditions | mass density [kg/m3] | vapor or sublimation pressure [kPa]
333.15 K | 749.23 | 38.5
343.15 K | 739.46 | 61.1
353.15 K | 729.1 | 92.3

Conditions | refractive index
[2] | 1.3774

Reference: the NIST ThermoML archive (doi:10.1021/acs.jced.8b00103)
